From patent US8580813B2, “Cyclic azaindole-3-carboxamides, their preparation and their use as pharmaceuticals” (Sanofi, priority 2008, dated 2013)

Target: T1, Recombinant human renin (Homo sapiens, UniProt P00797)
T1 construct: purchased Cayman 10006217
T1 sequence (P00797 67-406): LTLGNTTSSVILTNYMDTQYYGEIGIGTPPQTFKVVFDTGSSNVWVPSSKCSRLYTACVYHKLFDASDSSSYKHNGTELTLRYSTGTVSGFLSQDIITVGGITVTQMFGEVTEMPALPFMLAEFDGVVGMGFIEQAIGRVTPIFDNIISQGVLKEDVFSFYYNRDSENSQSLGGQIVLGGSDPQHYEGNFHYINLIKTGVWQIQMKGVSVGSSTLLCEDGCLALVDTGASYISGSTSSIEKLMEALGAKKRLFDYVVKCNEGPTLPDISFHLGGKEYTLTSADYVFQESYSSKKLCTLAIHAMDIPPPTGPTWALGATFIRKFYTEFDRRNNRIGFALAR
Assay: Inhibition of renin (fluorogenic peptide substrate)
Assay type: biochemical
Settings: recombinant human renin 5 nM, substrate 10 μM, 2 h at room temperature, Tris buffer pH 8; compounds tested as the obtained salt
Method: M-2050; […] The increase in fluorescence, which is due to fluorescence resonance energy transfer, was recorded at an excitation wavelength of 330 nm and an emission wavelength of 485 nm in a microplate spectrofluorometer. Inhibitory concentrations IC50 were calculated from the percentage of inhibition of renin activity as a function of the concentration of the test compound. […] Representative IC50 values, which were determined with the compounds in the form of the obtained salt indicated in the examples above, are listed in table 8.

| Compound | IC50 [µM] |
| --- | --- |
| Cc1c(F)cccc1Cc1c(C(=O)N2CCNCC2)c2cccnc2n1-c1ccccc1 [Example 27, [2-(3-Fluoro-2-methyl-benzyl)-1-phenyl-1H-pyrrolo[2,3-b]pyridin-3-yl]-piperazin-1-yl-methanone] | 0.086 |
| Cc1c(F)cccc1Cc1c(C(=O)N2CCN[C@@H](CO)C2)c2cnc(O)cc2n1C1CCCCC1 [Example 116] | 1.1 |
| CC(c1ccccc1)c1c(C(=O)N2CCNCC2)c2ncccc2n1-c1ccccc1 (stereo not shown) [Example 50, [1-Phenyl-2-(1-phenyl-ethyl)-1H-pyrrolo[3,2-b]pyridin-3-yl]-piperazin-1-yl-methanone] | 1 |
| Cc1cccc(C)c1Oc1c(C(=O)N2CCNCC2)c2cnc(O)cc2n1C1CCCCC1 [Example 49, [1-Cyclohexyl-2-(2,6-dimethyl-phenoxy)-6-hydroxy-1H-pyrrolo[3,2-c]pyridin-3-yl]-piperazin-1-yl-methanone] | 0.08 |
| Cc1ccc(F)cc1Oc1c(C(=O)N2CCNCC2)c2ccnc(Cl)c2n1-c1ccccc1 [Example 38, [7-Chloro-2-(5-fluoro-2-methyl-phenoxy)-1-phenyl-1H-pyrrolo[2,3-c]pyridin-3-yl]-piperazin-1-yl-methanone] | 0.32 |
| Cc1c(F)cc(F)cc1Oc1c(C(=O)N2CCNCC2)c2ncccc2n1-c1ccccc1 [Example 111] | 0.65 |
| Cc1c(F)cccc1Cc1nccc2c(C(=O)N3CCNCC3)c(Cc3cccc(F)c3C)n(-c3ccccc3)c12 [Example 40, [2,7-Bis-(3-fluoro-2-methyl-benzyl)-1-phenyl-1H-pyrrolo[2,3-c]pyridin-3-yl]-piperazin-1-yl-methanone] | 0.0051 |
| Cc1c(F)cccc1Cc1c(C(=O)N2CCNCC2)c2cc(O)cnc2n1-c1ccccc1 [Example 31, [2-(3-Fluoro-2-methyl-benzyl)-5-hydroxy-1-phenyl-1H-pyrrolo[2,3-b]pyridin-3-yl]-piperazin-1-yl-methanone] | 0.0056 |
| CCCc1ccnc2c1c(C(=O)N1CCNCC1)c(Oc1cc(F)ccc1C)n2-c1ccccc1 [Example 133] | 1.85 |
| Cc1ccccc1Cc1c(C(=O)N2CCNCC2)c2ncccc2n1-c1ccccc1 [Example 3, [2-(2-Methyl-benzyl)-1-phenyl-1H-pyrrolo[3,2-b]pyridin-3-yl]-piperazin-1-yl-methanone] | 0.12 |
| COc1ccc2c(C(=O)N3CCNCC3)c(Oc3c(C)cccc3C)n(-c3ccccc3)c2n1 [Example 134] | 0.003 |
| COc1cc2c(C(=O)N3CCNCC3)c(Cc3cccc(F)c3C)n(-c3ccccc3)c2cn1 [Example 22, [2-(3-Fluoro-2-methyl-benzyl)-5-methoxy-1-phenyl-1H-pyrrolo[2,3-c]pyridin-3-yl]-piperazin-1-yl-methanone] | 0.85 |
| COc1cc2c(cn1)c(C(=O)N1CCN[C@@H](C)C1)c(Cc1cccc(F)c1C)n2C1CCCCC1 [Example 113] | 0.32 |
| O=C(c1c(Cc2c(F)cccc2Cl)n(-c2ccccc2)c2ccncc12)N1CCNCC1 [Example 13, [2-(2-Chloro-6-fluoro-benzyl)-1-phenyl-1H-pyrrolo[3,2-c]pyridin-3-yl]-piperazin-1-yl-methanone] | 0.1 |
| Cc1c(F)cccc1Oc1c(C(=O)N2CCNCC2)c2cccnc2n1-c1ccccc1 [Example 129] | 0.17 |
| Cc1ccc(F)c(C)c1Oc1c(C(=O)N2CCNCC2)c2ccncc2n1-c1ccccc1 [Example 37, [2-(3-Fluoro-2,6-dimethyl-phenoxy)-1-phenyl-1H-pyrrolo[2,3-c]pyridin-3-yl]-piperazin-1-yl-methanone] | 0.0017 |

Other lines, results leading:

| IC50 [µM] | Compound |
| --- | --- |
| 0.11 | Cc1cccc(C)c1Oc1c(C(=O)N2CCNCC2)c2ncc(OCC(=O)O)cc2n1-c1ccccc1 [Example 57, [2-(2,6-Dimethyl-phenoxy)-1-phenyl-3-(piperazine-1-carbonyl)-1H-pyrrolo[3,2-b]pyridin-6-yloxy]-acetic acid] |
| 0.07 | CNC(=O)CC1CN(C(=O)c2c(Oc3c(C)cccc3C)n(-c3ccccc3)c3cccnc23)CCN1 (stereo not shown) [Example 59, 2-{4-[2-(2,6-Dimethyl-phenoxy)-1-phenyl-1H-pyrrolo[3,2-b]pyridine-3-carbonyl]-piperazin-2-yl}-N-methyl-acetamide] |
| 0.25 | Cc1ccccc1Oc1c(C(=O)N2CCNCC2)c2ncccc2n1-c1ccccc1 [Example 1, [1-Phenyl-2-(2-methyl-phenoxy)-1H-pyrrolo[3,2-b]pyridin-3-yl]-piperazin-1-yl-methanone] |
| 0.057 | COC(=O)CC1CN(C(=O)c2c(Oc3c(C)cccc3C)n(-c3ccccc3)c3cccnc23)CCN1 (stereo not shown) [Example 58, {4-[2-(2,6-Dimethyl-phenoxy)-1-phenyl-1H-pyrrolo[3,2-b]pyridine-3-carbonyl]-piperazin-2-yl}-acetic acid methyl ester] |
| 7 | Cc1cccc(C)c1Oc1c(C(=O)N2CCN[C@@H](CC(C)C)C2)c2ncccc2n1-c1ccccc1 [Example 97] |
| 0.077 | CCOc1cnc2c(C(=O)N3CCNCC3)c(Oc3c(C)cccc3C)n(-c3ccccc3)c2c1 [Example 54, [2-(2,6-Dimethyl-phenoxy)-6-ethoxy-1-phenyl-1H-pyrrolo[3,2-b]pyridin-3-yl]-piperazin-1-yl-methanone] |
| 0.42 | Cc1cccc(C)c1Oc1c(C(=O)N2CCNCC2Cc2ccccc2)c2ncccc2n1-c1ccccc1 (stereo not shown) [Example 106] |
| 0.19 | Cc1ccc(F)cc1Sc1c(C(=O)N2CCN[C@@H](C)C2)c2ncccc2n1-c1ccccc1 [Example 139, [2-(5-Fluoro-2-methyl-phenylsulfanyl)-1-phenyl-1H-pyrrolo[3,2-b]pyridin-3-yl]-((S)-3-methyl-piperazin-1-yl)-methanone] |
| 0.29 | COC[C@H]1CN(C(=O)c2c(Oc3c(C)cccc3C)n(-c3ccccc3)c3cccnc23)CCN1 [Example 89] |
